Like-named read-outs stand apart in the source and are kept apart here.
Target: T1, BCL6 (Homo sapiens, UniProt P41182)
T1 construct: endogenous in cells; host or cells: T47D breast cancer epithelial cells
Test: Immunofluorescence protocol for high content imaging of BCL6 (degradation) in T47D cells, 3 days compound treatment
Type: cell-based
Details: for DC50: read-out: Mean DC50 (nM)* category; for Dmax: read-out: Mean Dmax (%)** category
How it was run: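 T47D, RPMI1640/10% FBS; cpd 11-pt 3-fold, top 0.1 or 1 μM final; 3 d, 37° C. Fix 4% PFA, perm 0.1% Triton, block 3% BSA; anti-BCL6 1:300 o/n 4° C; Alexa-488 2°, CellMask-647, Hoechst. Imaged 10×, 4 fields/well.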

[1] = T47D cells, 3 days compound treatment

Compound	DC50 [1] [nM]	Dmax [1] [%]	Dmax (T47D) [%]	DC50 [nM]
CNC(=O)COc1cc2cc(Nc3nc(N4CCC5(CCN(CC6CCN(c7cccc8c7C(=O)N(C7CCC(=O)NC7=O)C8=O)CC6)C5)C4)ncc3Cl)ccc2n(C(C)C)c1=O (centres unmarked) [Compound 11]	10 to 50	≥ 70		
CNC(=O)COc1cc2cc(Nc3nc(N4CCC(O[C@H]5C[C@H](N6CC[C@H](c7ccc8c(c7F)CN(C7CCC(=O)NC7=O)C8=O)[C@@H](O)C6)C5)CC4)ncc3Cl)ccc2n(C(C)C)c1=O (stereo partly drawn) [Compound 284, 2-({6-[(5-chloro-2-{4-[(1r,3r)-3-[(3R,4R)-4-[2-(2,6-dioxopiperidin-3-yl)-4-fluoro-1-oxo-2,3-dihydro-1H-isoindol-5-yl]-3-hydroxypiperidin-1-yl]cyclobutoxy]piperidin-1-yl}pyrimidin-4-yl)amino]-2-oxo-1-(propan-2-yl)-1,2-dihydroquinolin-3-yl}oxy)-N-methylacetamide]			50 to 70	< 10
CNC(=O)COc1cc2cc(Nc3nc(N4CCC(CN5CCC6(CC5)CN(c5cc(F)c7c(c5)CN(C5CCC(=O)NC5=O)C7=O)C6)CC4)ncc3Cl)ccc2n(C(C)C)c1=O (centres unmarked) [Compound 80, 2-{[6-({5-chloro-2-[4-({2-[2-(2,6-dioxopiperidin-3-yl)-7-fluoro-1-oxo-2,3-dihydro-1H-isoindol-5-yl]-2,7-diazaspiro[3.5]nonan-7-yl}methyl)piperidin-1-yl]pyrimidin-4-yl}amino)-2-oxo-1-(propan-2-yl)-1,2-dihydroquinolin-3-yl]oxy}-N-methylacetamide]	< 10	50 to 70		
CNC(=O)COc1cc2cc(Nc3nc(N4CCN(CC5CCC6(CCN(c7ccc8c(c7)CN(C7CCC(=O)NC7=O)C8=O)C6)C5)CC4)ncc3Cl)ccc2n(C(C)C)c1=O (centres unmarked) [Compound 75, 2-{[6-({5-chloro-2-[4-({2-[2-(2,6-dioxopiperidin-3-yl)-1-oxo-2,3-dihydro-1H-isoindol-5-yl]-2-azaspiro[4.4]nonan-7-yl}methyl)piperazin-1-yl]pyrimidin-4-yl}amino)-2-oxo-1-(propan-2-yl)-1,2-dihydroquinolin-3-yl]oxy}-N-methylacetamide]	< 10	50 to 70		
CNC(=O)COc1cc2cc(Nc3nc(N4CCC(O[C@H]5C[C@H](N6CCC(c7ccc8c(c7F)[C@@H](C)N(C7CCC(=O)NC7=O)C8=O)CC6)C5)CC4)ncc3Cl)ccc2n(C(C)C)c1=O (stereo partly drawn) [Compound 289, 2-({6-[(5-chloro-2-{4-[(1r,3r)-3-{4-[(3R)-2-(2,6-dioxopiperidin-3-yl)-4-fluoro-3-methyl-1-oxo-2,3-dihydro-1H-isoindol-5-yl]piperidin-1-yl}cyclobutoxy]piperidin-1-yl}pyrimidin-4-yl)amino]-2-oxo-1-(propan-2-yl)-1,2-dihydroquinolin-3-yl}oxy)-N-methylacetamide]			≥ 70	< 10
CNC(=O)COc1cc2cc(Nc3nc(N4CCC(O[C@H]5C[C@H](N6CCN(c7cc8c(cc7OC)C(=O)N(C7CCC(=O)NC7=O)C8=O)CC6)C5)CC4)ncc3Cl)ccc2n(C(C)C)c1=O (some centres unmarked) [Compound 423, 2-({6-[(5-chloro-2-{4-[(1r,3r)-3-{4-[2-(2,6-dioxopiperidin-3-yl)-6-methoxy-1,3-dioxo-2,3-dihydro-1H-isoindol-5-yl]piperazin-1-yl}cyclobutoxy]piperidin-1-yl}pyrimidin-4-yl)amino]-2-oxo-1-(propan-2-yl)-1,2-dihydroquinolin-3-yl}oxy)-N-methylacetamide]			≥ 70	< 10
CNC(=O)COc1cc2cc(Nc3nc(N4CCC(O[C@H]5C[C@H](N6CCN(c7ccc8c(c7Cl)C(=O)N(C7CCC(=O)NC7=O)C8=O)CC6)C5)CC4)ncc3Cl)ccc2n(C(C)C)c1=O (some centres unmarked) [Compound 412, 2-({6-[(5-chloro-2-{4-[(1r,3r)-3-{4-[4-chloro-2-(2,6-dioxopiperidin-3-yl)-1,3-dioxo-2,3-dihydro-1H-isoindol-5-yl]piperazin-1-yl}cyclobutoxy]piperidin-1-yl}pyrimidin-4-yl)amino]-2-oxo-1-(propan-2-yl)-1,2-dihydroquinolin-3-yl}oxy)-N-methylacetamide]			50 to 70	10 to 50
CNC(=O)COc1cc2cc(Nc3nc(N4CCC(O[C@H]5C[C@H](N6CCC(c7ccc8c(n7)CN(C7CCC(=O)NC7=O)C8=O)CC6)C5)CC4)ncc3Cl)ccc2n(C(C)C)c1=O (some centres unmarked) [Compound 214, 2-({6-[(5-chloro-2-{4-[(1r,3r)-3-{4-[6-(2,6-dioxopiperidin-3-yl)-5-oxo-5H,6H,7H-pyrrolo[3,4-b]pyridin-2-yl]piperidin-1-yl}cyclobutoxy]piperidin-1-yl}pyrimidin-4-yl)amino]-2-oxo-1-(propan-2-yl)-1,2-dihydroquinolin-3-yl}oxy)-N-methylacetamide]			50 to 70	< 10
CNC(=O)COc1cc2cc(Nc3nc(N4CCC(O[C@H]5C[C@H](N6CC[C@@H](c7ccc8c(c7F)CN(C7CCC(=O)NC7=O)C8=O)C(C)(C)C6)C5)CC4)ncc3Cl)ccc2n(C(C)C)c1=O (stereo partly drawn) [Compound 430, 2-({6-[(5-chloro-2-{4-[(1r,3r)-3-[(4R)-4-[2-(2,6-dioxopiperidin-3-yl)-4-fluoro-1-oxo-2,3-dihydro-1H-isoindol-5-yl]-3,3-dimethylpiperidin-1-yl]cyclobutoxy]piperidin-1-yl}pyrimidin-4-yl)amino]-2-oxo-1-(propan-2-yl)-1,2-dihydroquinolin-3-yl}oxy)-N-methylacetamide]			≥ 70	< 10
CNC(=O)COc1cc2cc(Nc3nc(N4CCC(O[C@H]5C[C@H](N6C[C@@H](C)N(c7ccc8c(c7C)C(=O)N(C7CCC(=O)NC7=O)C8=O)C[C@@H]6C)C5)CC4)ncc3Cl)ccc2n(C(C)C)c1=O (stereo partly drawn) [Compound 207, 2-({6-[(5-chloro-2-{4-[(1r,3r)-3-[(2S,5R)-4-[2-(2,6-dioxopiperidin-3-yl)-4-methyl-1,3-dioxo-2,3-dihydro-1H-isoindol-5-yl]-2,5-dimethylpiperazin-1-yl]cyclobutoxy]piperidin-1-yl}pyrimidin-4-yl)amino]-2-oxo-1-(propan-2-yl)-1,2-dihydroquinolin-3-yl}oxy)-N-methylacetamide]	< 10	≥ 70		
CNC(=O)COc1cc2cc(Nc3nc(N4CCC(C(C)(C)N5CCC6(CC5)CN(c5c(OC)ccc7c5CN(C5CCC(=O)NC5=O)C7=O)C6)CC4)ncc3Cl)ccc2n(C(C)C)c1=O (centres unmarked) [Compound 327, 2-{[6-({5-chloro-2-[4-(2-{2-[2-(2,6-dioxopiperidin-3-yl)-5-methoxy-1-oxo-2,3-dihydro-1H-isoindol-4-yl]-2,7-diazaspiro[3.5]nonan-7-yl}propan-2-yl)piperidin-1-yl]pyrimidin-4-yl}amino)-2-oxo-1-(propan-2-yl)-1,2-dihydroquinolin-3-yl]oxy}-N-methylacetamide]			≥ 70	< 10
CNC(=O)COc1cc2cc(Nc3nc(N4CCC(O[C@H]5C[C@H](N6CCN(c7cc8c(cc7F)C(=O)N(C7CCC(=O)NC7=O)C8=O)[C@H](C)C6)C5)CC4)ncc3Cl)ccc2n(C(C)C)c1=O (stereo partly drawn) [Compound 408, 2-({6-[(5-chloro-2-{4-[(1r,3r)-3-[(3R)-4-[2-(2,6-dioxopiperidin-3-yl)-6-fluoro-1,3-dioxo-2,3-dihydro-1H-isoindol-5-yl]-3-methylpiperazin-1-yl]cyclobutoxy]piperidin-1-yl}pyrimidin-4-yl)amino]-2-oxo-1-(propan-2-yl)-1,2-dihydroquinolin-3-yl}oxy)-N-methylacetamide]			50 to 70	50 to 100

Continued, in another order:

DC50 [1] [nM]	Dmax [1] [%]	Compound	Dmax (T47D) [%]	DC50 [nM]
< 10	50 to 70	CNC(=O)COc1cc2cc(Nc3nc(N4CCC(CN5CCC6(CN(c7ccc8c(c7)CN(C7CCC(=O)NC7=O)C8=O)C6)C(F)(F)C5)CC4)ncc3Cl)ccc2n(C(C)C)c1=O (centres unmarked) [Compound 90, 2-{[6-({5-chloro-2-[4-({2-[2-(2,6-dioxopiperidin-3-yl)-1-oxo-2,3-dihydro-1H-isoindol-5-yl]-5,5-difluoro-2,7-diazaspiro[3.5]nonan-7-yl}methyl)piperidin-1-yl]pyrimidin-4-yl}amino)-2-oxo-1-(propan-2-yl)-1,2-dihydroquinolin-3-yl]oxy}-N-methylacetamide]		
< 10	50 to 70	CNC(=O)COc1cc2cc(Nc3nc(N4CCC(CN5CCC6(CCN(c7cc(F)cc8c7C(=O)N(C7CCC(=O)NC7=O)C8=O)C6)C5)CC4)ncc3Cl)ccc2n(C(C)C)c1=O (centres unmarked) [Compound 138, 2-{[6-({5-chloro-2-[4-({7-[2-(2,6-dioxopiperidin-3-yl)-6-fluoro-1,3-dioxo-2,3-dihydro-1H-isoindol-4-yl]-2,7-diazaspiro[4.4]nonan-2-yl}methyl)piperidin-1-yl]pyrimidin-4-yl}amino)-2-oxo-1-(propan-2-yl)-1,2-dihydroquinolin-3-yl]oxy}-N-methylacetamide]		
< 10	≥ 70	CNC(=O)COc1cc2cc(Nc3nc(N4CCC(OC5CCC6(CC5)CN(c5cc7c(cc5F)C(=O)N(C5CCC(=O)NC5=O)C7)C6)CC4)ncc3Cl)ccc2n(C(C)C)c1=O (centres unmarked) [Compound 123, 2-{[6-({5-chloro-2-[4-({2-[2-(2,6-dioxopiperidin-3-yl)-6-fluoro-1-oxo-2,3-dihydro-1H-isoindol-5-yl]-2-azaspiro [3.5]nonan-7-yl}oxy)piperidin-1-yl]pyrimidin-4-yl}amino)-2-oxo-1-(propan-2-yl)-1,2-dihydroquinolin-3-yl]oxy}-N-methylacetamide]		
≥ 100	≥ 70	CNC(=O)COc1cc2cc(Nc3nc(N4CCOC5(CN(CCC6CCN(c7cccc8c7C(=O)N(C7CCC(=O)NC7=O)C8=O)CC6)C5)C4)ncc3Cl)ccc2n(C(C)C)c1=O (centres unmarked) [Compound 144, 2-{[6-({5-chloro-2-[2-(2-{1-[2-(2,6-dioxopiperidin-3-yl)-1,3-dioxo-2,3-dihydro-1H-isoindol-4-yl]piperidin-4-yl}ethyl)-5-oxa-2,8-diazaspiro[3.5]nonan-8-yl]pyrimidin-4-yl}amino)-2-oxo-1-(propan-2-yl)-1,2-dihydroquinolin-3-yl]oxy}-N-methylacetamide]		

Reference: patent US11986532B2 (Arvinas Operations, Inc., priority 2021, dated 2024)
